Experimental findings from US20190135818A1 (SHANGHAI INSTITUTE OF MATERIA MEDICA, CHINESE ACADEMY OF …, priority 2016, published 2019) are described below.

SMILES strings stand for the structures.

In series [1] the test system is human lung cancer NCI-H1581 transplanted tumor. Kind of series: Tumor growth inhibition in tumor-bearing mice (subcutaneously transplanted tumor). It is filed as in vivo, BALB/cA nude mice. The conditions noted are these: for T/C (%): 13th day; for TV (mm^3, mean ± SD) d0: d0, before dosing. On the procedure:
Before using, the compound was diluted with 5% Tween80 in normal saline to the desired concentration (light yellow suspension), and was prepared once a week.
Before using, the compound was diluted with 1% Tween 80 in normal saline to the desired concentration (white suspension), and was prepared once a week.
The cell strain was inoculated in the right axilla of the nude mice, and the amount of cells inoculated was 5×10^6/animal to form transplanted tumor, and passaged in vivo in nude mice by 1 generation before use.
The tumor tissue in the vigorous growth period was cut into 1.5 mm^3, and inoculated subcutaneously in the right axilla of the nude mice under aseptic conditions. The diameter of the subcutaneously transplanted in a nude mice was measured with a vernier caliper, and the animals were randomly grouped when the average volume of tumors was about 220 mm^3. […] The solvent control group was given an equal amount of normal saline. The diameter of the transplanted tumor was measured twice a week during the entire experiment, and the body weights of the mice were weighed. The calculation formula of tumor volume (TV) is: TV=1/2×a×b2, where a and b respectively represent the length and width of the tumor. The relative tumor volume (RTV) was calculated based on the measured results and the formula was: RTV=Vt/V0. Where V0 is the tumor volume measured before grouping and dosing (d0), and Vt is the tumor volume at each measurement.

Series [2] deals with Human acute myeloid leukemia cell line KG1. Nature of the series: FGFR-dependent tumor cell proliferation inhibition activity test (CCK-8, 72 h). The conditions noted are these: Homo sapiens, KG-1, KG1 cells. The class given is cell-based. The text has this: Human acute myeloid leukemia cell line KG1 (FGFR1 fusion protein expressed in the cytoplasm, FGFR1-dependent tumor cell line) (ATCC, Cat. No. CCL-246), cell culture medium RPMI-1640 (Corning Cellgro, No. 10-040-CVR), fetal bovine serum (Life
Technologies, Cat. No. 10099-141) was purchased from the company; CCK-8 cell counting kit (DOJINDO, Cat. No. FK808). Adjustable wavelength microplate reader (Molecular Device, Cat. No. SpectraMax 190).
The inhibitory effect of the compound on KG1 proliferation was detected by CCK-8 Cell Counting Kit (Dojindo): Logarithmic growth phase cells were seeded in 96-well culture plate in appropriate density, 90 ul for each well. After cultured overnight, different concentrations of drugs were added and incubated for 72 h, while solvent control well was set (negative control). After the cells were treated by the compound for 72 h, 10 μL of CCK-8 reagent was added to each well. After incubated for 2-4 hours in a 37 □ incubator, the plate was read with SpectraMax 190 microplate reader at wavelength 450 nm.
The inhibition rate of compounds against cell proliferation is calculated by the following formula:
Inhibition rate (%)=(OD negative control well-OD administration well)/OD negative control well×100%.
The IC50 values were obtained by four-parameter regression analysis using the software supplied with the microplate reader.

The term IC50 denotes the point on the concentration scale where inhibition reaches its midpoint. Consider `Cc1c(-c2c3c(N)n[nH]c(=O)c3nn2-c2ccc(NC(=O)/C=C/CN(C)C)cc2)oc2ccc(Cl)cc12` [Compound A26, (2E)-N-{4-[4-amino-3-(5-chloro-3-methyl-1-benzofuran-2-yl)-7-carbonyl-6,7-dihydro-2H-pyrazolo[3,4-d]pyridazin-2-yl]phenyl}-4-(dimethylamino)but-2-enamide], for which, in series [1] (50 mg/kg and 10 mg/kg intraperitoneally once a day for 13 days), the “growth of subcutaneously transplanted tumors (in words)” value is on record as “significantly inhibited”. In series [1] (A26 10 mg/kg ip qd/13), the “T/C (%)” value amounted to 19.88%; the “body weight (g) d0” value was determined as 18.4 g; the “TV (mm^3, mean ± SD) d0” value is on record as 161 ± 71 mm^3. In addition, in series [1] (A26 10 mg/kg ip qd/13, d13), the “RTV (mean ± SD)” value is given as 4.17 ± 2.49; the “TV (mm^3, mean ± SD) d13” value is reported as 621 ± 289 mm^3; the “body weight (g) d13” value was 21.3 g. In series [1] (A26 50 mg/kg ip qd/13), the “T/C (%)” value was 2.20%; the “body weight (g) d0” value is listed as 18.2 g; the “TV (mm^3, mean ± SD) d0” value is reported as 159 ± 69 mm^3. In series [1] (A26 50 mg/kg ip qd/13, d13), the “RTV (mean ± SD)” value amounted to 0.46 ± 0.19 and the “TV (mm^3, mean ± SD) d13” value is given as 66 ± 21 mm^3. The compound further came in with an IC50 in series [2] of no more than 0.1 µM.
